Source: patent US7887852B2, “Soft gel capsules containing polymethoxylated flavones and palm oil tocotrienols” (Soft Gel Technologies, Inc., priority 2005, dated 2011)

Assay: Randomized crossover pharmacokinetics study of two Sytrinol formulations, single oral dose, serum tangeretin and nobiletin by LC/MS/MS
Parameters: species or system healthy human subjects
Settings: human, in vivo
Description: The following experiments were undertaken to determine whether citrus polymethoxylated flavones (PMFs) can be detected and quantitated in serum obtained from healthy adults after a single-dose administration of Sytrinol™ capsules (containing 1053 mg of total PMFs) and to compare oral bioavailabilities of two Sytrinol™ formulations in healthy human subjects. This study was conducted as a randomized crossover trial in ten healthy adults, five men and five women, age 23±3 years. […]
Peripheral blood was taken by venipuncture at time 0 (baseline) and times 0.25, 0.5, 1, 2, 4, 6, 8, 24 and 48 hours after ingestion of Sytrinol™ capsules. […] Tangeretin and nobiletin were detected in serum samples and quantitated by LC/MS/MS.
The study was designed to determine whether PMFs can be detected and quantitated in serum obtained from healthy adults after a single dose administration of Sytrinol™ capsules (containing 1053 mg of total PMFs) and to compare oral bioavailabilities of two Sytrinol™ formulations in healthy human subjects. […]
A method of serum extraction and LC/MS/MS analysis of PMF was developed. A Varian 1200 L LC/MS/MS system equipped with ESI and APCI sources was used to identify and quantify tangeretin and nobiletin. […]

## COc1ccc(-c2cc(=O)c3c(OC)c(OC)c(OC)c(OC)c3o2)cc1OC [nobiletin]
  AUC0-48h of nobiletin compared with tangeretin: significantly higher
